In article PMC8955734, “4-Arylthiosemicarbazide Derivatives as Toxoplasmic Aromatic Amino Acid Hydroxylase Inhibitors and Anti-inflammatory Agents” (International Journal of Molecular Sciences, 2022):

Columns and labels:
[1] = target: T1, AAH1 (toxoplasmic aromatic amino acid hydroxylase 1), catalytic domain (Toxoplasma gondii, UniProt S8G872); assay: coupled NADH oxidation assay (dihydropteridine reductase), […] nm; fit to competitive inhibition equation; assay type: biochemical; details: read-out: KI ^c
T1 construct: catalytic domain, pET-45b (His-tag), expressed in E. coli BL21 GOLD (DE3) pLysS, cobalt resin
T1 sequence (S8G872 1-390 limits assumed): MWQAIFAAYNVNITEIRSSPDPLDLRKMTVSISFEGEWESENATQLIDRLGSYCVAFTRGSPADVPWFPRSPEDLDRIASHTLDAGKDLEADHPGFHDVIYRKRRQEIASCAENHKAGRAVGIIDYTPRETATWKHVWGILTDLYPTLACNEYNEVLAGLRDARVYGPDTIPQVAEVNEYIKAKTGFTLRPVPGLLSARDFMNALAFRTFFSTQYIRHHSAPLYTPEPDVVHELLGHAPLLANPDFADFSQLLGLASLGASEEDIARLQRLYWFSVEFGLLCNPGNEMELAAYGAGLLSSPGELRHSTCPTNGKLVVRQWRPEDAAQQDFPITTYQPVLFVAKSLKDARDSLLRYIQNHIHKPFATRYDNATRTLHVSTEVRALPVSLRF

[2] = target: T2, AAH2 (toxoplasmic aromatic amino acid hydroxylase 2), catalytic domain (Toxoplasma gondii, UniProt S8FBW5); assay: as above; assay type: biochemical; details: read-out: KI ^c
T2 construct: catalytic domain, pET-45b (His-tag), expressed in E. coli BL21 GOLD (DE3) pLysS, cobalt resin
T2 sequence (S8FBW5 156-565): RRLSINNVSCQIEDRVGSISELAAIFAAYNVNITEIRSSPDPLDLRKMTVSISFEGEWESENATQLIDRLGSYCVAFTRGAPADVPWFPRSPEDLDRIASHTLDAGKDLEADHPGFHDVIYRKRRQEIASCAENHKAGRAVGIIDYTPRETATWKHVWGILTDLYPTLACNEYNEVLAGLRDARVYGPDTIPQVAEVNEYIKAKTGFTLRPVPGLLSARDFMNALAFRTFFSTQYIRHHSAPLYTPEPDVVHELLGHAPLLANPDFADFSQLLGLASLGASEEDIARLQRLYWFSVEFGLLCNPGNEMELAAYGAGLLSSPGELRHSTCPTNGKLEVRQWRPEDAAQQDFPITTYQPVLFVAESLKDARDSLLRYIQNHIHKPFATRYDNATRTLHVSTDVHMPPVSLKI

[3] = target: T1, AAH1 (toxoplasmic aromatic amino acid hydroxylase 1), catalytic domain; assay: DARTS (Pronase protection, Western blot); assay type: binding; details: 10 µM compound, and dose-dependent; room temperature
purified protein = substrate: N[C@@H](Cc1ccc(O)cc1)C(=O)O; assay: purified protein; assay type: biochemical, Toxoplasma gondii; details: no inhibitor, 500 µM (6R)-BH4, 500 µM NADH, 10 µM ferrous ammonium sulfate, pH 7.5, 32 °C

Molecule	Ki [1]	Ki [2]	DARTS (Pronase protection, Western blot) [3]	Km (purified protein)
Cc1nc[nH]c1C(=O)NNC(=S)Nc1ccc([N+](=O)[O-])cc1 [2a]	1.49 µM	3.69 µM	Proteolysis of AAH1 by Pronase was clearly inhibited by the presence of 2a and 6a	
Cc1nc[nH]c1C(=O)NNC(=S)Nc1cccc(I)c1 [6a]	1.27 µM	3.23 µM	Proteolysis of AAH1 by Pronase was clearly inhibited by the presence of 2a and 6a	
AAH2 (toxoplasmic aromatic amino acid hydroxylase 2), catalytic domain (Toxoplasma gondii ME49) (protein, catalytic domain, pET-45b (His-tag), expressed in E. coli BL21 GOLD (DE3) pLysS, cobalt resin) RRLSINNVSCQIEDRVGSISELAAIFAAYNVNITEIRSSPDPLDLRKMTVSISFEGEWESENATQLIDRLGSYCVAFTRGAPADVPWFPRSPEDLDRIASHTLDAGKDLEADHPGFHDVIYRKRRQEIASCAENHKAGRAVGIIDYTPRETATWKHVWGILTDLYPTLACNEYNEVLAGLRDARVYGPDTIPQVAEVNEYIKAKTGFTLRPVPGLLSARDFMNALAFRTFFSTQYIRHHSAPLYTPEPDVVHELLGHAPLLANPDFADFSQLLGLASLGASEEDIARLQRLYWFSVEFGLLCNPGNEMELAAYGAGLLSSPGELRHSTCPTNGKLEVRQWRPEDAAQQDFPITTYQPVLFVAESLKDARDSLLRYIQNHIHKPFATRYDNATRTLHVSTDVHMPPVSLKI				71 µM
AAH1 (toxoplasmic aromatic amino acid hydroxylase 1), catalytic domain (Toxoplasma gondii ME49) (protein, catalytic domain, pET-45b (His-tag), expressed in E. coli BL21 GOLD (DE3) pLysS, cobalt resin) MWQAIFAAYNVNITEIRSSPDPLDLRKMTVSISFEGEWESENATQLIDRLGSYCVAFTRGSPADVPWFPRSPEDLDRIASHTLDAGKDLEADHPGFHDVIYRKRRQEIASCAENHKAGRAVGIIDYTPRETATWKHVWGILTDLYPTLACNEYNEVLAGLRDARVYGPDTIPQVAEVNEYIKAKTGFTLRPVPGLLSARDFMNALAFRTFFSTQYIRHHSAPLYTPEPDVVHELLGHAPLLANPDFADFSQLLGLASLGASEEDIARLQRLYWFSVEFGLLCNPGNEMELAAYGAGLLSSPGELRHSTCPTNGKLVVRQWRPEDAAQQDFPITTYQPVLFVAKSLKDARDSLLRYIQNHIHKPFATRYDNATRTLHVSTEVRALPVSLRF				30 µM
